Reference: paper PMC6843786, “Temporin-SHa and Its Analogs as Potential Candidates for the Treatment of Helicobacter pylori” (Biomolecules, 2019)
Read-outs that look alike come from different tables or passages of the source. Non-standard residues stand in square brackets, D forms with d. Residues, ends and D or L forms follow the SMILES beside them.

Assays:
N87 cells = assay: In vitro toxicity assay using human gastric cells (resazurin); type: cell-based
Description: [26] Human gastric cells N87 (ATCC CRL-5822) were cultured in RPMI-1640 medium supplemented with 10% fetal calf serum (FCS), 1% L-glutamine and 1% antibiotics (all from Invitrogen, Carlsbad, CA, USA) and were routinely seeded onto 25 cm^2 flasks maintained in a 5% CO2 incubator at 37 °C. For the toxicity assay, cells grown on 25 cm^2 flasks were detached using trypsin–EDTA solution (from Thermofisher), counted using Mallasez counting chamber and seeded into 96-well cell culture plates (Greiner Bio-one) at approximately 10^4 cells per well. The cells were left to grow for 48–72 h at 37 °C in a 5% CO2 incubator until they reached confluence. Plates were then aspirated and increasing concentrations of peptides were added to the cells for 48 h at 37 °C in a 5% CO2 incubator, volume of water corresponding to the volume of peptides being used as negative control. At the end of the incubation, wells were aspirated, and cell viability was evaluated using resazurin-based in vitro toxicity assay kit (Sigma-Aldrich) following manufacturer’s instructions. Briefly, resazurin stock solution was diluted 1:10 in sterile PBS containing calcium and magnesium (PBS^++, pH 7.4) and empty wells were filled with 100 µL of the diluted solution. After 4 h incubation at 37 °C, fluorescence intensity was measured using microplate reader (Synergy Mx, Biotek) with an excitation wavelength of 530 nm and an emission wavelength of 590 nm. The fluorescence values were normalized by the controls and expressed as percent viability.

[1] = tested on: total lipids extracted from H. pylori (ATCC 43504); assay: Lipid insertion assay (lipid monolayer, critical pressure of insertion); parameters: species or system biophysical; details: peptide 1 µM, PBS pH 7.4, from the line fits of Figure 4
Description: Peptide-lipid interaction was measured using reconstituted lipid monolayer at the air-water interface as previously described. Total lipids were extracted from overnight cultures of H. pylori (ATCC 43504) using Folch extraction procedure as previously described. Extracted total lipids were dried, resolubilized in chloroform:methanol (2:1, v/v) and stored at -20 °C under nitrogen. For peptide-lipid interaction assay, total lipid extract was spread using a 50 μL Hamilton's syringe at the surface of 800 μL of sterile PBS creating a lipid monolayer at the air-water interface. Lipids were added until the surface pressure reached the desired value. […] The variation of the surface pressure caused by peptide injection was then continuously monitored using a fully automated microtensiometer (μTROUGH SX, Kibron Inc., Helsinki, Finland) until reaching equilibrium (maximal surface pressure increase being usually obtained after 15-25 min). […] Variation of surface pressure was plotted as a function of initial surface pressure and the critical pressure of insertion of each peptide into H. pylori lipids was calculated as the theoretical value of initial pressure of lipid monolayer not permissive to peptide insertion, i.e., giving a variation of pressure equal to 0 mN/m.

[2] = tested on: clinical strains of H. pylori; details: for MIC: MH + 10% FBS + 2% isovitale-X
Source text: (§1) H. pylori used in this study were either the reference strain obtained from the American Type Culture Collection (ATCC 43504) or clinical strains received frozen from our collaborator Josette Raymond from Hospital Cochin, Paris. Strains were obtained from patients who underwent a gastroendoscopy performed for various gastro-intestinal disorders according to the recommendations of Haute Autorité de Santé (HAS). During the endoscopy, biopsy samples were taken from antrum and corpus. Samples were then crushed, and the material was used for bacterial culture and molecular methods. An antibiogram was performed and strains were then frozen at -80 °C in a broth with 10% glycerol. Bacteria were cultured as previously described. Briefly, H. pylori (ATCC 43504) was cultured in brain heart infusion (BHI) and incubated at 37 °C for 16 h in microaerophilic condition in BD GasPak EZ using BD GasPak EZ CampyPak container system sachets (BD Biosciences, Le Pont-de-Claix, France). For clinical strains, a sample from the frozen bacteria was streaked on Blood Agar (Base) (Sigma-Aldrich, Illkirch-Graffenstaden, France) supplemented with 5% horse defibrinated blood (Fisher Scientific, Les Ulis, France) and 2% isovitale-X (Fisher Scientific, Illkirch-Graffenstaden, France). The petri dishes were then incubated at 37 °C for 4–7 days in microaerophilic condition. Then, a colony is transferred to 3 mL Mueller Hinton (MH) broth supplemented with 10% fetal bovine serum (FBS) and 2% isovitale-X. The cultures were then incubated for 4–7 days until the bacteria grow before further experiments.
(§2) Briefly, after the growth of H. pylori in liquid culture the optical density (OD) of the bacterial suspensions were read at 600 nm and adjusted to one. Stock solutions of the peptides at 1 mM were prepared in sterile water. Bacteria were diluted in medium to reach bacterial density around 10^5 bacteria/mL. One-hundred microliters per well of bacterial suspension were then added into sterile polypropylene 96-well microplates (Greiner BioOne, Paris, France) and exposed to increasing concentrations of peptides (from zero to 100 µM, 1:2 serial dilution). […] Plates were incubated at 37 °C for 24 h for H. pylori (ATCC 43504) and for 4–7 days for the clinical strains. H. pylori was tested in microaerophilic conditions generated using micro-anaerobic BD GasPak system. At the end of the incubation, OD600nm was measured using microplate reader (Synergy Mx, Biotek, Colmar, France). The MIC was defined as the lowest concentration of drug that inhibited visible growth of the organism. Experiments were conducted in independent triplicate (n = 3).

H. pylori (ATCC 43504) [3] = tested on: H. pylori (ATCC 43504)
Source text: as §1, §2

H. pylori (ATCC 43504) [4] = assay: MIC after digestion by pepsin (resistance to pepsin); details: 4 h at 37 °C with pepsin 1 mg/mL in HCl pH 2
Description: as §2
(§3) It is also rich with mucus to protect it from the aggressive acidity. For this reason, the impact of mucins and pepsin on the activity of the peptides was investigated. The impact of the gastric mucins on peptide activity was evaluated using a combination of commercial porcine stomach mucins MUC2 and MUC3 (Sigma–Aldrich) at a final concentration of 1 mg/mL sterilized using 0.2 µm filter. This concentration was used based on the estimated concentration of mucins present in the mucus in vivo [27]. The effect of mucins on peptides activity was evaluated by MIC and by time killing assay as explained below. The resistance of the peptides to pepsin was tested as previously described with some changes. […] This concentration was used since it corresponds the pepsin concentration in the stomach (0.5–1 mg/mL).

H. pylori (ATCC 43504) [5] = tested on: H. pylori (ATCC 43504); remark: listed apart in the source
Description: as §2, §3

H. pylori (ATCC 43504) [6] = assay: Membrane permeabilization assay (propidium iodide); details: not told
Description: Bacterial membrane permeabilization was evaluated using the cell-impermeable DNA/RNA probe propidium iodide as previously explained. Logarithmic growing bacterial suspension of H. pylori (ATCC 43504) was prepared from overnight bacterial suspension after 1:10 dilution. After 3 h incubation at 37 °C, in microaerophilic condition, bacterial suspensions were centrifuged for 5 min at 3000× g. Cell pellets were then resuspended in sterile PBS at about […]. Propidium iodide (solution at 1 mg/mL, Sigma Aldrich) was then added to the suspension at a final concentration of 60 µM. 100 µL of this suspension were then transferred into 96-well black plates and were exposed to increasing concentrations of peptides obtained by serial dilution (from zero to 100 µM, 1:2 dilution). […] Kinetics of fluorescence variations (excitation at 530 nm and emission at 590 nm) were then recorded over 240 min of incubation at 37 °C in micro-aerobic condition using a microplate reader (Biotek, Synergy Mx). The effect of the peptides on the membrane integrity was expressed in percentage of permeabilization, CTAB at 300 µM being used as positive control giving 100% permeabilization. All experiments were done in triplicate.

CC[C@H](C)[C@H](NC(=O)[C@@H](C)NC(=O)[C@H](CO)NC(=O)[C@H](CC(C)C)NC(=O)[C@@H](N)Cc1ccccc1)C(=O)N[C@H](C(=O)NCC(=O)N[C@@H](CCSC)C(=O)N[C@@H](CC(C)C)C(=O)NCC(=O)N[C@@H](CCCCN)C(=O)N[C@@H](CC(C)C)C(=O)N[C@@H](Cc1ccccc1)C(N)=O)C(C)C [NST2, H-Phe^1-Leu^2-Ser^3-D-Ala^4-Ile^5-Val^6-Gly^7-Met^8-Leu^9-Gly^10-Lys^11-Leu^12-Phe^13-NH2] (H-FLS[dA]IVGMLGKLF-NH2)
IC50 (N87 cells; 48 h incubation, resazurin cell viability, read-out: IC50 on N87 Cells): 1250 ± 240 µM | increase in toxicity to human gastric cells compared to temporin-SHa (N87 cells; from IC50 on N87 cells): around 1.2 fold | critical pressure of insertion (CPI) [1]: 37.86 mN/m | MIC values against resistant clinical strains (span over all strains) ([2]; all resistant clinical strains, MH + 10% FBS): 50 to 100 µM | MIC ([2]; clinical strain BM18, resistance Clari/Metro): 50 µM | MIC ([2]; clinical strain EM68, resistance Clari/Metro): 100 µM | MIC ([2]; clinical strain LN18, resistance Clari): 50 µM | MIC ([2]; clinical strain MF76, resistance Clari/Metro): 50 µM | MIC ([2]; clinical strain MP78, resistance Clari/Metro): 50 µM | MIC ([2]; clinical strain MS67, resistance Clari/Metro): 50 µM | MIC ([2]; clinical strain NM44, resistance Clari/Metro): 50 µM | MIC on H. pylori (ATCC 43504) (H. pylori (ATCC 43504) [3]; MH medium, 24 h, microaerophilic): 12.5 µM | MIC on H. pylori (ATCC 43504) in MH supplemented with 10% FBS (H. pylori (ATCC 43504) [3]; MH supplemented with 10% FBS): 50 µM | reduction in the antibacterial activity compared to temporin-SHa (H. pylori (ATCC 43504) [3]; from MIC on H. pylori (ATCC 43504)): 4 times | MIC after Digestion by Pepsin (H. pylori (ATCC 43504) [4]): >50 µM | increase of MIC in the presence of mucins (H. pylori (ATCC 43504) [5]; MUC2 and MUC3 at 1 mg/mL versus no mucins): two | MIC in the Presence of mucins (H. pylori (ATCC 43504) [5]; porcine gastric mucins MUC2 and MUC3 at 1 mg/mL): 25 µM

CC[C@H](C)[C@H](NC(=O)[C@@H](C)NC(=O)[C@H](CO)NC(=O)[C@H](CC(C)C)NC(=O)[C@@H](N)Cc1ccccc1)C(=O)N[C@H](C(=O)N[C@H](C)C(=O)N[C@@H](CCSC)C(=O)N[C@@H](CC(C)C)C(=O)N[C@H](C)C(=O)N[C@@H](CCCCN)C(=O)N[C@@H](CC(C)C)C(=O)N[C@@H](Cc1ccccc1)C(N)=O)C(C)C [NST5, H-Phe^1-Leu^2-Ser^3-D-Ala^4-Ile^5-Val^6-D-Ala^7-Met^8-Leu^9-D-Ala^10-Lys^11-Leu^12-Phe^13-NH2] (H-FLS[dA]IV[dA]ML[dA]KLF-NH2)
increase in toxicity to human gastric cells compared to temporin-SHa (N87 cells): twice | IC50 (N87 cells; 48 h): 762 ± 235 µM | critical pressure of insertion (CPI) [1]: 33.99 mN/m | membrane permeabilization of H. pylori (ranking in words) (H. pylori (ATCC 43504) [6]): weakest permeabilization effect | MIC on H. pylori (ATCC 43504) (H. pylori (ATCC 43504) [3]; ATCC 43504, 24 h): 100 µM

CC[C@H](C)[C@H](NC(=O)[C@H](C)NC(=O)[C@H](CO)NC(=O)[C@H](CC(C)C)NC(=O)[C@@H](N)Cc1ccccc1)C(=O)N[C@H](C(=O)NCC(=O)N[C@@H](CCSC)C(=O)N[C@@H](CC(C)C)C(=O)N[C@@H](C)C(=O)N[C@@H](CCCCN)C(=O)N[C@@H](CC(C)C)C(=O)N[C@@H](Cc1ccccc1)C(N)=O)C(C)C [NSTL7, H-Phe^1-Leu^2-Ser^3-L-Ala^4-Ile^5-Val^6-Gly^7-Met^8-Leu^9-L-Ala^10-Lys^11-Leu^12-Phe^13-NH2] (H-FLSAIVGMLAKLF-NH2)
IC50 (N87 cells; 48 h): 2290 ± 762 µM | critical pressure of insertion (CPI) [1]: not able to insert at all | membrane permeabilization of H. pylori (ranking in words) (H. pylori (ATCC 43504) [6]): weakest permeabilization effect | MIC on H. pylori (ATCC 43504) (H. pylori (ATCC 43504) [3]; ATCC 43504, 24 h): 50 µM
